Experiments:
[1] = system: T. cruzi amastigotes and trypomastigotes; assay: T. cruzi infection assay in L929 cells (beta-galactosidase Tulahuen strain); format: cell-based, Trypanosoma cruzi
in vitro = conditions: mouse, noninfected L929 fibroblast cells
HDAC6 = target: T1, HDAC6 (Homo sapiens, UniProt Q9UBN7); assay: HDAC6 protease-coupled fluorescence (AMC) inhibition assay; format: biochemical; conditions: hr enzyme, 10-dose, 3-fold dilution from 50 μM (3: from 300 μM); read-out: IC50 against HDAC6
T1 sequence (Q9UBN7 1-1215): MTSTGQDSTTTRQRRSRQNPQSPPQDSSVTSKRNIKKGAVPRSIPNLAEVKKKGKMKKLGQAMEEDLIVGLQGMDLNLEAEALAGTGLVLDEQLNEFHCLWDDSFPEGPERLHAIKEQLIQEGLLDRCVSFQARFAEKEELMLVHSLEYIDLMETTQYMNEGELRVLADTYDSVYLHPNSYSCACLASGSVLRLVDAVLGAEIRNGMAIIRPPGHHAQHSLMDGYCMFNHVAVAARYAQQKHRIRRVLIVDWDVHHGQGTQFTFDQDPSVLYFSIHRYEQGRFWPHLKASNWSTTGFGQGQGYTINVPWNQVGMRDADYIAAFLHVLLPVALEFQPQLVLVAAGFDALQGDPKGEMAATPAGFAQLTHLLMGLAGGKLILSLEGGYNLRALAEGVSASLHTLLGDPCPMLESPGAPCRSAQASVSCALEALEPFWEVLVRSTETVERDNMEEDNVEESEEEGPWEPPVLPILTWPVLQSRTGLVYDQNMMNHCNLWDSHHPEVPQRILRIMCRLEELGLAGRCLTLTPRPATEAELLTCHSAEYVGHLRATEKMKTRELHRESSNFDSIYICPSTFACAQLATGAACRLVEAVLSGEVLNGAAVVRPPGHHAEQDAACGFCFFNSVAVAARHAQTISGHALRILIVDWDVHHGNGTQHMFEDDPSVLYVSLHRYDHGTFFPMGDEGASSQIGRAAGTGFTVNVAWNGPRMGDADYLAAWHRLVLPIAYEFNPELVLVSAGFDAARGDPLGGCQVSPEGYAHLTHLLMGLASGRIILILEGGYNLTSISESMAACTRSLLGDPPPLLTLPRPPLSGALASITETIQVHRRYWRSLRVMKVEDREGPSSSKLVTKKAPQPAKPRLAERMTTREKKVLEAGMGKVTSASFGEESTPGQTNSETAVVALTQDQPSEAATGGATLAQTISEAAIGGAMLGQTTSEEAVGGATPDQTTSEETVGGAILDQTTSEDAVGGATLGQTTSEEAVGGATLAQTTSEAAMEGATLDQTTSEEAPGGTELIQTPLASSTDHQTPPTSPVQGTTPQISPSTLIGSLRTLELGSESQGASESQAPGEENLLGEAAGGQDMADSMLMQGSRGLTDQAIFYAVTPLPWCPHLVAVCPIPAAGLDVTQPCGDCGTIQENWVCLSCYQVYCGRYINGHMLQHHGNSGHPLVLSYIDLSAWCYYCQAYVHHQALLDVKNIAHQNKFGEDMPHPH
Source text: (§1) The new hydroxamates 2 and 6 were screened and profiled via a protease-coupled assay in which the quantification of HDAC enzyme activity is based on the formation of a free fluorescent group, the 7-amino-4-methyl coumarin (AMC).[42] […] After deacetylation by HDACs, the de(trifluoro)acetylated AMC–peptides were sensitive toward lysine peptidase and free fluorogenic AMC was generated and quantified.[42]
(§2) To gain insights into its inhibition profile for human HDACs, we tested 3 against hrHDACs 1–6 and 8 following the above procedure (Table 1).
(§3) Individual IC50 values for each HDAC isozyme were measured with the homogeneous fluorescence release HDAC assay.[42]

[2] = system: L. donovani axenic amastigotes; assay: Resazurin reduction assay, L. donovani axenic amastigotes; format: cell-based; conditions: Leishmania donovani, read-out: percentage of inhibition, L. donovani axenic amastigotes
HDAC8 = target: T2, HDAC8 (Homo sapiens, UniProt Q9BY41); assay: HDAC8 protease-coupled fluorescence (AMC) inhibition assay; format: biochemical; conditions: hr enzyme, substrate RHK(Ac)K(Ac)AMC; read-out: IC50 against HDAC8
T2 sequence (Q9BY41 1-377): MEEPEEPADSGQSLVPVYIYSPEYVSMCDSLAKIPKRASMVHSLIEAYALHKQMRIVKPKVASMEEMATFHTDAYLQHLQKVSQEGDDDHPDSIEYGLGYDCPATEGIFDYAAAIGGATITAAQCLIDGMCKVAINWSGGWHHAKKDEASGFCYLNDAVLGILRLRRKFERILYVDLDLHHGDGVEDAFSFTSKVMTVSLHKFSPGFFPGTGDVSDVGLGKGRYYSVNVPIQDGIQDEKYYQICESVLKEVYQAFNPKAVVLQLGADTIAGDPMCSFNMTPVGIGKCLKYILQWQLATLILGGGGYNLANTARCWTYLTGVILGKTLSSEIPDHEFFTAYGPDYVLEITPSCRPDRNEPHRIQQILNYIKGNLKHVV
Source text: as §1, §2, §3

HDAC4 = HDAC4 (Homo sapiens, UniProt P56524); assay: HDAC4 protease-coupled fluorescence (AMC) inhibition assay; format: biochemical; conditions: hr enzyme, class IIa substrate Boc-Lys(trifluoroacetyl)-AMC; read-out: IC50 against HDAC4
Source text: as §1, §2, §3

HDAC5 = HDAC5 (Homo sapiens, UniProt Q9UQL6); assay: HDAC5 protease-coupled fluorescence (AMC) inhibition assay; format: biochemical; conditions: hr enzyme, class IIa substrate Boc-Lys(trifluoroacetyl)-AMC; read-out: IC50 against HDAC5
Source text: as §1, §2, §3

HDAC2 = HDAC2 (Homo sapiens, UniProt Q92769); assay: HDAC2 protease-coupled fluorescence (AMC) inhibition assay; format: biochemical; conditions: hr enzyme, 10-dose, 3-fold dilution from 50 μM (3: from 300 μM); read-out: IC50 against HDAC2
Source text: as §1, §2, §3

[3] = system: newly transformed schistosomula (NTS); assay: Phenotypic screening on newly transformed schistosomula (NTS); format: cell-based, Schistosoma mansoni
HDAC1 = HDAC1 (Homo sapiens, UniProt Q13547); assay: HDAC1 protease-coupled fluorescence (AMC) inhibition assay; format: biochemical; conditions: hr enzyme, 10-dose, 3-fold dilution from 50 μM (3: from 300 μM); read-out: IC50 against HDAC1
Source text: as §1, §2, §3

[4] = system: L. amazonensis promastigotes; assay: Resazurin reduction assay, L. amazonensis promastigotes; format: cell-based; conditions: Leishmania amazonensis; 20 μM; read-out: percentage of inhibition, L. amazonensis promastigotes
[5] = system: L. donovani promastigotes; assay: Resazurin reduction assay, L. donovani promastigotes; format: cell-based; conditions: Leishmania donovani, read-out: percentage of inhibition, L. donovani promastigotes
HDAC3 = HDAC3 (Homo sapiens, UniProt O15379); assay: HDAC3 protease-coupled fluorescence (AMC) inhibition assay; format: biochemical; conditions: hr enzyme, 10-dose, 3-fold dilution from 50 μM (3: from 300 μM); read-out: IC50 against HDAC3
Source text: as §1, §2, §3

Leishmania = system: Leishmania; design: method as in PMID 28107750; conditions: 10 and 20 μM; cited from earlier work
[6] = system: S. mansoni schistosomula, adult worm pairs, and egg production; design: method as in PMID 28107750; conditions: 10 μM; cited from earlier work

Sequence of HDAC1 (Q13547 whole entry): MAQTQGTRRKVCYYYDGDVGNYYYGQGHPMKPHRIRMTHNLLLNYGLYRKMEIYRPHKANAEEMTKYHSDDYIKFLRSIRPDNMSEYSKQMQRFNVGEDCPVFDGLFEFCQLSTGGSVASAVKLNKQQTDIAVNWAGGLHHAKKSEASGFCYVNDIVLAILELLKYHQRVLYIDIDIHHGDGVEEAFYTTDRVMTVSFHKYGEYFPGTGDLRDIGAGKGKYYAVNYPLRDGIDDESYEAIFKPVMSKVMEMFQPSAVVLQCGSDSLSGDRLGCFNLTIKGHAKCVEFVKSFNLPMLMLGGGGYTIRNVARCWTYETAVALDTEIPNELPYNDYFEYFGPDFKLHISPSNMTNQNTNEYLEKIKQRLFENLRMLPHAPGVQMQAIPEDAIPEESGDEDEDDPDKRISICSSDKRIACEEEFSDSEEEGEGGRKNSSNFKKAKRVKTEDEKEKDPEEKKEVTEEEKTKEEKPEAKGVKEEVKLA
Sequence of HDAC3 (O15379 whole entry): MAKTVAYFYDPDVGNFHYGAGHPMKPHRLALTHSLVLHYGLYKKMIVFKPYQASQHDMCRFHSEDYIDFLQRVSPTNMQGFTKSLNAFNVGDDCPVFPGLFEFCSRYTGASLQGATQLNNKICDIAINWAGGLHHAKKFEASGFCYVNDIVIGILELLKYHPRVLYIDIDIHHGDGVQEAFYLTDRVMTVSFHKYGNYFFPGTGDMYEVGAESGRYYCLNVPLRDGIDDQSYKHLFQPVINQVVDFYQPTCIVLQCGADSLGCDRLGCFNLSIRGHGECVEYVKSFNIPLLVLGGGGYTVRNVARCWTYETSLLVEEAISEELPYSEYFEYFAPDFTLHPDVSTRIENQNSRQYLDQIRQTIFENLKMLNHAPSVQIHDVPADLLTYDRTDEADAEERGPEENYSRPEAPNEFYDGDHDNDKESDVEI
Sequence of HDAC3 (Q9Y618 395-489 partner limits assumed): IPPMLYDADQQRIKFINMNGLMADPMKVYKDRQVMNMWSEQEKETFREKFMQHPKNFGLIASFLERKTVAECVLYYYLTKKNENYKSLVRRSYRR
Sequence of HDAC5 (Q9UQL6 whole entry): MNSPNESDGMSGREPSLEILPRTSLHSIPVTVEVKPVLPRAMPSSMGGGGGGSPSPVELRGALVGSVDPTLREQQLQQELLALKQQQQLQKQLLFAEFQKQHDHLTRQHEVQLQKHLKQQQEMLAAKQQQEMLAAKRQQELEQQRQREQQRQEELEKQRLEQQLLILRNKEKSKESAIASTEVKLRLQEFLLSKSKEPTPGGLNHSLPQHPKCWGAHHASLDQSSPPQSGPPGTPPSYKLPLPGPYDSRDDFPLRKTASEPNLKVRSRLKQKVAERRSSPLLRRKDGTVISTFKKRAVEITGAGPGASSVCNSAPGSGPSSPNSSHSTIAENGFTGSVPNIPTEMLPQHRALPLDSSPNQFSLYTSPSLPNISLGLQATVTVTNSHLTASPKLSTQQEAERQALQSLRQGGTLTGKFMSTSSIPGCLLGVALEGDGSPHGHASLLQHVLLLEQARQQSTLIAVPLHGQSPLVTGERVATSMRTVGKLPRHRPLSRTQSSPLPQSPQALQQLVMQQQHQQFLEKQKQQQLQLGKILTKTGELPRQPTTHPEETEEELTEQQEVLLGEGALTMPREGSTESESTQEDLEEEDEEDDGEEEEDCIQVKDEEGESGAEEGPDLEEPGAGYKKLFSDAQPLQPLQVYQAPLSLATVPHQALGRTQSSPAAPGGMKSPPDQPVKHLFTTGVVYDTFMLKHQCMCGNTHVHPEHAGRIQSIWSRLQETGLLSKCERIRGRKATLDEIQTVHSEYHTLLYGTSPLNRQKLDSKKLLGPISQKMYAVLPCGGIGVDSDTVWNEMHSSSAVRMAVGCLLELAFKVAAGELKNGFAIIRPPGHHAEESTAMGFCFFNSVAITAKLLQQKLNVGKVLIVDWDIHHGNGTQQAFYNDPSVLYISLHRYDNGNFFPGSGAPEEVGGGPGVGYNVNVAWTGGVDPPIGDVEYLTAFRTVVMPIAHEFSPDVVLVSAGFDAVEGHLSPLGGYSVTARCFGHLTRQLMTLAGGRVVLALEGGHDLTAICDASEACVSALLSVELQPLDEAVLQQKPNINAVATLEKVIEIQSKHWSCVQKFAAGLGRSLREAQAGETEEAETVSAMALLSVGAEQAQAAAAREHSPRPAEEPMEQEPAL
Sequence of HDAC4 (P56524 whole entry): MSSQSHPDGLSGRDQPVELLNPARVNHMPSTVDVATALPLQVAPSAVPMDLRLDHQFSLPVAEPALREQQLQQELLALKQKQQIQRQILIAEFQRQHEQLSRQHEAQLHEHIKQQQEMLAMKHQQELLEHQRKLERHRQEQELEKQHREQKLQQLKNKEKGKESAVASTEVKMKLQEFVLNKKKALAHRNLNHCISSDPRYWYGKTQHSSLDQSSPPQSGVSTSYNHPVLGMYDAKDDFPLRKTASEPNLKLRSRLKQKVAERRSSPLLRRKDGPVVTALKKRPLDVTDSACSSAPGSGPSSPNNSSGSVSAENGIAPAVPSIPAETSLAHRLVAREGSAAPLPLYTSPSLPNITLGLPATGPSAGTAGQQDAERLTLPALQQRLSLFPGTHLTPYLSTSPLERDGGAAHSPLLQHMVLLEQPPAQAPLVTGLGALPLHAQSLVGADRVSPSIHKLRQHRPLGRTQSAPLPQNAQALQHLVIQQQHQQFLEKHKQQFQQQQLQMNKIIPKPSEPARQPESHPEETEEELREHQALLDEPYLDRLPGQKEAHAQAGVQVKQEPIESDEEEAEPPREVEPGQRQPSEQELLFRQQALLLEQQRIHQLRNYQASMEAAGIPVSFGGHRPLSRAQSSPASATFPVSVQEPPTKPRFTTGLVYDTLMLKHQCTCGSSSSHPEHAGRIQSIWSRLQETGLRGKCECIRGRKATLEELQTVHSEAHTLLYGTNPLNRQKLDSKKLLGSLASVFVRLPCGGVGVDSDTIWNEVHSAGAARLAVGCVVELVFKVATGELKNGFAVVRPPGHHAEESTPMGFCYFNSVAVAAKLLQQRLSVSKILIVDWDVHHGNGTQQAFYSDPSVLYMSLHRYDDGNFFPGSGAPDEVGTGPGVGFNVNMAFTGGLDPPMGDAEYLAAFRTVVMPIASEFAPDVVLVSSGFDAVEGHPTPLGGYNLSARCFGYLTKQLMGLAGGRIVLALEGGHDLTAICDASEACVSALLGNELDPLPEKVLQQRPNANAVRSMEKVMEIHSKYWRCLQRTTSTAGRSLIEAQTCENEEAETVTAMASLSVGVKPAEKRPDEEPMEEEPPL
Sequence of HDAC2 (Q92769 whole entry): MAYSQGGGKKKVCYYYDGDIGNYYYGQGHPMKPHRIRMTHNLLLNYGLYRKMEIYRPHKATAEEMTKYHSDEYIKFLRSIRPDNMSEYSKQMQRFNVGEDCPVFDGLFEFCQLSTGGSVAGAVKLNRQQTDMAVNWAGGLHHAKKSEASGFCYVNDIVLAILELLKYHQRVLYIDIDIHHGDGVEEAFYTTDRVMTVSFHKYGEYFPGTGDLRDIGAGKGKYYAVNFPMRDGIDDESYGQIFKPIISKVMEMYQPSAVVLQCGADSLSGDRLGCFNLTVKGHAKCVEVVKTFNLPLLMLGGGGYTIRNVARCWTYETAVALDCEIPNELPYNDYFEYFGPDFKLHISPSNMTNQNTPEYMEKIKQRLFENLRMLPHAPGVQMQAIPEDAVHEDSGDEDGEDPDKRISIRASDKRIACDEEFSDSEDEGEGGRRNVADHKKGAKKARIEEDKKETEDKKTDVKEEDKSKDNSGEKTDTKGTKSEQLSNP

With Cn1c(/C=C/C(=O)NO)ccc1/C=C/C(=O)c1cccc(Cl)c1 [Compound 3] the “percentage of T. cruzi growth inhibition” value ([1]; 80 μM, infected L929 cells, 96 h, toxic = L929 death) was “toxic”, the “percentage of T. cruzi growth inhibition” value ([1]; 160 μM, infected L929 cells, 96 h, toxic = L929 death) was “toxic” and the “selectivity index (SI), CC50/EC50” value ([1]; L929 CC50 / T. cruzi EC50) was 5.7. The EC50 ([1]; Trypanosoma cruzi, L929, 96 h, infected L929 cells, 96 h, mean ± SD, read-out: EC50, growth of T. cruzi amastigotes and trypomastigotes) was 7 ± 0.2 µM, the inhibition at 1.25 µM ([1]; Trypanosoma cruzi, 1.25 μM, infected L929 cells, 96 h, read-out: percentage of T. cruzi growth inhibition) was 0% and the inhibition at 2.5 µM ([1]; Trypanosoma cruzi, 2.5 μM, infected L929 cells, 96 h, toxic = L929 death, read-out: percentage of T. cruzi growth inhibition) was 2%. It also gave an inhibition at 5 µM ([1]; Trypanosoma cruzi, 5 μM, infected L929 cells, 96 h, toxic = L929 death, read-out: percentage of T. cruzi growth inhibition) of 39%, an inhibition at 10 µM ([1]; Trypanosoma cruzi, 10 μM, infected L929 cells, 96 h, toxic = L929 death, read-out: percentage of T. cruzi growth inhibition) of 67% and an inhibition at 20 µM ([1]; Trypanosoma cruzi, 20 μM, infected L929 cells, 96 h, toxic = L929 death, read-out: percentage of T. cruzi growth inhibition) of 87%. For the same compound, the inhibition at 40 µM ([1]; Trypanosoma cruzi, 40 μM, infected L929 cells, 96 h, toxic = L929 death, read-out: percentage of T. cruzi growth inhibition) was 90%, the CC50 at 96 h (in vitro) was 40 µM and the IC50 (HDAC6) was 6.1 µM. The inhibition at 0.8 µM ([2]; 0.8 μM) was 4.9 ± 4.9%, the inhibition at 4 µM ([2]; 4 μM) was 50.8 ± 2.4% and the inhibition at 20 µM ([2]; 20 μM) was 74.9 ± 1.3%. For the same compound, the IC50 (HDAC8) was 2 µM, the IC50 (HDAC4) was 132 µM and the IC50 (HDAC5) was 131 µM. The IC50 (HDAC2) was 257 µM, the “percentage of NTS activity, 72 h” value ([3]; 10 μM) was 22.3 ± 2.0% and the “percentage of NTS activity, 72 h” value ([3]; 20 μM) was 23.5 ± 0.9%. The IC50 ([3]; Schistosoma mansoni, 72 h, read-out: IC50, viability of NTS) was greater than 20 µM, the IC50 (HDAC1) was greater than 300 µM and the inhibition at 20 µM [4] was 9.1 ± 6.3%. The inhibition at 0.8 µM ([5]; 0.8 μM) was 3.8 ± 3.4%, the inhibition at 4 µM ([5]; 4 μM) was 1.7 ± 1.5% and the inhibition at 20 µM ([5]; 20 μM) was 6.8 ± 1.8%. The IC50 (HDAC3) was greater than 300 µM.
In the case of O=C(CCCCCCC(=O)Nc1ccccc1)NO [SAHA], the “effect in Leishmania” value (Leishmania) is listed as “ineffective and/or exhibited too high toxicity for macrophages” and the “effects in schistosomula, adult worm pairs, and egg production” value (“effects in schistosomula” below) [6] is listed as “only moderate effects”.
In the case of O=C(/C=C/c1cccc(S(=O)(=O)Nc2ccccc2)c1)NO [belinostat], the “effect in Leishmania” value (Leishmania) is listed as “ineffective and/or exhibited too high toxicity for macrophages” and the “effects in schistosomula” value [6] is listed as “only moderate effects”.
For Cc1[nH]c2ccccc2c1CCNCc1ccc(/C=C/C(=O)NO)cc1 [panobinostat], the “effect in Leishmania” value (Leishmania) is given as “ineffective and/or exhibited too high toxicity for macrophages” and the “effects in schistosomula” value [6] is given as “only moderate effects”.
For C/C=C1\NC(=O)[C@H]2CSSCC/C=C/[C@H](CC(=O)N[C@H](C(C)C)C(=O)N2)OC(=O)[C@H](C(C)C)NC1=O [romidepsin], the “effect in Leishmania” value (Leishmania) is listed as “ineffective and/or exhibited too high toxicity for macrophages” and the “effects in schistosomula” value [6] is listed as “only moderate effects”.

— paper PMC9274761, “Effects of Structurally Different HDAC Inhibitors against Trypanosoma cruzi, Leishmania, and Schistosoma mansoni” (ACS Infectious Diseases, 2022)
